Measurements taken from article PMC4834666 (ACS Medicinal Chemistry Letters, 2016).

Assays:
[1] = human liver microsomes
[2] = Human hepatocyte stability; type: in vitro ADME; details: human hepatocytes
[3] = test system: U87 MG/M human glioblastoma xenografts; details: each dose, for the duration of the xenograft study

## COC(C)(C)c1cc2nc(-c3cnc(N)nc3)nc(N3CCOCC3)c2s1 [Compound 1, reference compound]
[1]
  HLM Clhep: 10.4 mL/min/kg

## Cc1nc(N)ncc1-c1nc(N2CCOCC2)c2nc(C(C)(C)O)n(CCO)c2n1 [Compound 4]
[1]
  HLM Clhep: 2.8 mL/min/kg

## Cc1nc(N)ncc1-c1nc(N2CCOCC2)c2nc3n(c2n1)CCOC3(C)C [Compound 15]
[1]
  HLM Clhep: 3.1 mL/min/kg
[2]
  HH Clhep: 1.2 mL/min/kg

## CC1(C)OCCn2c1nc1c(N3CCOCC3)nc(-c3cnc(N)nc3)nc12 [Compound 16, GDC-0084]
[3]
  tolerability: well tolerated
[1]
  HLM Clhep: 5.0 mL/min/kg
[2]
  HH Clhep: 1.0 mL/min/kg

## COC1(c2sc3c(N4CCOCC4)nc(-c4cnc(N)nc4)nc3c2C)COC1 [Compound 2, reference compound]
[1]
  HLM Clhep: 9.8 mL/min/kg
